Literature values, collected in patent US20100086572A1, “RATIONAL PPI DOSAGE FORMS” (priority 2005, published 2010).
Read-outs that look alike come from different tables or passages of the source.

Tests used:
[1] = tested on: experimentally induced colitis; details: in vivo
[2] = 0.5 hours

drug degrading in aqueous solution ([2]; pH 5, 37° C.): About 49% | drug degrading in aqueous solution ([2]; pH 6, 37° C.): ~10% | drug degrading in aqueous solution ([2]; pH 7, 37° C.): ~2% | drug degrading in aqueous solution ([2]; pH 8, 37° C.): ~1% | area under the plasma concentration curve (AUC) (30 mg once a day): 1934 ng·h/mL | area under the plasma concentration curve (AUC) (60 mg once a day): 4743 ng·h/mL | area under the plasma concentration curve (AUC) (60 mg three times a day): 14083 ng·h/mL | area under the plasma concentration curve (AUC) (60 mg twice a day): 8508 ng·h/mL
Compound: Cc1c(OCC(F)(F)F)ccnc1C[S+]([O-])c1nc2ccccc2[nH]1 (stereo not drawn) [lansoprazole]
formation of experimentally induced colitis [1]: inhibits the formation of experimentally induced-induced colitis
